Source: the NIST ThermoML archive (doi:10.1021/je034213q)

Settings: Gas

FC(F)C(F)(F)F [pentafluoroethane]
Settings	speed of sound [m/s]
277.16 K, 20.94 kPa	144.94
277.16 K, 40.92 kPa	144.49
277.16 K, 60.65 kPa	144.05
277.16 K, 80.97 kPa	143.59
277.16 K, 101.09 kPa	143.13
277.16 K, 121.01 kPa	142.67
277.16 K, 141.08 kPa	142.2
277.16 K, 161.07 kPa	141.73
277.16 K, 180.84 kPa	141.26
277.16 K, 198.8 kPa	140.83
303.14 K, 10.51 kPa	151.5
303.14 K, 20.76 kPa	151.31
303.14 K, 40.75 kPa	150.97
303.14 K, 60.79 kPa	150.62
303.14 K, 80.27 kPa	150.28
303.14 K, 100.78 kPa	149.93
303.14 K, 120.91 kPa	149.57
303.14 K, 140.84 kPa	149.22
303.14 K, 160.84 kPa	148.87
303.14 K, 180.99 kPa	148.5
303.14 K, 200.32 kPa	148.16
303.14 K, 300.92 kPa	146.32
303.14 K, 398.68 kPa	144.47
303.14 K, 465.23 kPa	143.19
313.15 K, 10.5 kPa	153.84
313.15 K, 20.68 kPa	153.68
313.15 K, 40.59 kPa	153.37
313.15 K, 60.28 kPa	153.06
313.15 K, 80.59 kPa	152.74
313.15 K, 100.57 kPa	152.43
313.15 K, 120.77 kPa	152.11
313.15 K, 140.78 kPa	151.79
313.15 K, 160.71 kPa	151.47
313.15 K, 180.78 kPa	151.14
313.15 K, 200.47 kPa	150.82
313.15 K, 300.67 kPa	149.18
313.15 K, 400.7 kPa	147.49
313.15 K, 480.34 kPa	146.12
323.14 K, 10.7 kPa	156.16
323.14 K, 20.42 kPa	156.02
323.14 K, 40.64 kPa	155.73
323.14 K, 60.8 kPa	155.44
323.14 K, 80.84 kPa	155.16
323.14 K, 100.74 kPa	154.87
323.14 K, 120.86 kPa	154.58
323.14 K, 140.92 kPa	154.29
323.14 K, 160.95 kPa	154
323.14 K, 180.33 kPa	153.71
323.14 K, 200.71 kPa	153.41
323.14 K, 300.75 kPa	151.93
323.14 K, 400.83 kPa	150.41
323.14 K, 501.38 kPa	148.85
343.13 K, 40.76 kPa	160.33
343.13 K, 60.62 kPa	160.09
343.13 K, 80.21 kPa	159.86
343.13 K, 100.97 kPa	159.61
343.13 K, 120.73 kPa	159.37
343.13 K, 140.89 kPa	159.13
343.13 K, 160.51 kPa	158.89
343.13 K, 180.9 kPa	158.65
343.13 K, 197.5 kPa	158.44
343.13 K, 300.29 kPa	157.19
343.13 K, 400.48 kPa	155.94
343.13 K, 500.26 kPa	154.68
343.13 K, 600.3 kPa	153.41
343.14 K, 20.77 kPa	160.58
343.14 K, 40.77 kPa	160.34
343.14 K, 59.94 kPa	160.11
343.14 K, 80.48 kPa	159.86
343.14 K, 100.55 kPa	159.62
343.14 K, 120.9 kPa	159.38
343.14 K, 140.63 kPa	159.14
343.14 K, 160.64 kPa	158.9
343.14 K, 180.84 kPa	158.65
343.14 K, 200.46 kPa	158.41
343.14 K, 300.55 kPa	157.19
343.14 K, 399.77 kPa	155.96
343.14 K, 501.32 kPa	154.68
